Data: patent publication US20060100177A1, “Stabilized ascorbic acid derivatives” (priority 2002, published 2006)

Columns and labels:
[1] = stability test of aqueous solution, ratio of compound remaining after storage (HPLC); format: physicochemical; conditions: 2 mass % in purified water, glass bottle, 40° C., light-shielding, 10 days
Description: (under light-shielding condition) for 10 days. The ratio of the compound remaining after the storage was analyzed by using a high-performance liquid chromatograph equipped with Shodex (registered trademark of Showa Denko K.K.) SB802.5 HQ (mfd. by Showa Denko K.K.) column.
(Measurement Conditions for High-Performance Liquid Chromatography)

[2] = tested on: guinea pig incised wound; test: collagen synthesis-accelerating effect in guinea pig model system having an incised wound; format: in vivo; conditions: for Detachment tension / Hydroxyproline content: 0.2 ml test solution twice a day for four days (1) 2%; 2) and 3) 1%); for Detachment tension: incised wound on back; for Hydroxyproline content: skin section with incised wound, index of collagen; for effect on collagen synthesis and recovery of incised wound (in words): guinea pig incised wound
Excerpt: The collagen synthesis-accelerating effects of the following 1) to 3) test substances was compared with each other, by using a guinea pig model system having an incised (or cut) wound. The base material for dissolving each test substance was purified water containing 20% of ethanol, and 3% of propylene glycol. In this experiment, two incised wounds each having a length of 2 cm were formed on the back of a guinea pig by using a scalpel, so that the incised wounds are positioned symmetrically with regard to the center portion of the back. Then, 0.2 ml of the test substance solution was administered thereto twice a day, for four days. After the last administration was completed, a skin piece of 2 cm×2 cm (square shape) was surgically removed from the back of the guinea pig, so that the incised wound portions were positioned substantially at the center of the skin piece. Then, the tension required for the detachment of the incised wound surface was measured. Five guinea pigs were used with respect to one kind of the test substances. […] After the separation thereof by centrifugation, the resultant supernatant was freeze-dried. The protein content of the thus obtained skin sample was hydrolyzed with hydrochloric acid, and was subjected to amino acid analysis by use of AccQ.Tag Amino acid Analyzer (mfd. by Waters Co.). The results of the detachment tension measurement for the incised wound portion to which each test substance had been applied, and the hydroxyproline content thereof were as follows. Herein, the hydroxyproline is a substance which can be taken as an index of collagen.

[3] = tested on: human skin tissue three-dimensional model (TESTSKIN LSD-d); test: amount of ascorbic acid in human skin tissue three-dimensional model after application of test solution; format: cell-based; conditions: for amount of the ascorbic acid, 2 hours after culture / amount of the ascorbic acid, 6 hours after culture / amount of the ascorbic acid, 12 hours after culture: 40 μL test solution in Dulbecco PBS(−) applied 2 h (1) 2%; 2) and 3) 0.5%), removed; for amount of the ascorbic acid, 2 hours after culture: then cultured 2 hours; for amount of the ascorbic acid, 6 hours after culture: then cultured 6 hours; for amount of the ascorbic acid, 12 hours after culture: then cultured 12 hours; for concentration of ascorbic acid in the tissue (in words): administered to the skin model
Description: To the surface of a human skin tissue three-dimensional model (trademark: TESTSKIN LSD-d, mfd. by Toyobo Co., Ltd.), 40 μL of a solution which had been obtained by dissolving each of the substances (1) to (3) to be tested in Dulbecco PBS (−), and the resultant skin tissue model was cultured at 37° C. in the presence of 5% CO2 for two hours. Then, the test solution was removed by aspiration, and thereafter the skin tissue model was cultured at 37° C. in the presence of 5% CO2 for 2, 6 and 12 hours, respectively.
Each of the portions of the skin model which had been sampled at each culture time was washed with Dulbecco PBS (−), the surface portion was punched out by using a punch having a diameter of 6 mm φ, and homogenized in a HEPES buffer solution (pH 7.2) to obtain a homogenate. By use of the thus obtained homogenate, the amount of the ascorbic acid contained in the skin model was quantitatively analyzed by using a high performance liquid chromatography. The protein content in the skin model was quantitatively analyzed by using the Lowry method.
Measurement Conditions for High Performance Liquid Chromatography

SMILES | Residual Ratio (%) [1] [%] | Detachment tension [2] [g/cm] | Hydroxyproline content [2] [nmol/skin wet weight] | effect on collagen synthesis and recovery of incised wound (in words) [2] | amount of the ascorbic acid, 2 hours after culture [3] [nmol/mg skin protein] | amount of the ascorbic acid, 6 hours after culture [3] [nmol/mg skin protein] | amount of the ascorbic acid, 12 hours after culture [3] [nmol/mg skin protein] | concentration of ascorbic acid in the tissue (in words) [3]
CCCCCCCCCCCCCCCC(=O)OC[C@H](O)[C@H]1OC(=O)C(OP(=O)(O)O)=C1O.[Na] [Comparative Example A-1, L-ascorbic acid-2-phosphoric acid-6-palmitatic acid ester sodium salt, reference compound] | 88.6 |  |  |  |  |  |  | 
O=C1O[C@H]([C@@H](O)CO)C(O)=C1OP(=O)([O-])[O-].[Na+].[Na+] [Comparative Example A-2, L-ascorbic acid-2-phosphate sodium salt, reference compound] | 96.9 | 123 | 32.1 |  |  |  |  | 
CCCCCCCCC(CCCCCC)C(=O)OC[C@H](O)[C@H]1OC(=O)C(OP(=O)(O)O)=C1O.[Na] (stereo partly drawn) [Example A-1, L-Ascorbic acid-2-phosphoric acid-6-(2′-hexyldecanoate) sodium salt] | 95.3 | 181 | 38.5 | had an effect of accelerating the collagen synthesis | 6 | 10 | 23 | concentration of the ascorbic acid in the tissue could easily be enhanced effectively
CCCCCCCCCC(CCCCCCC)C(=O)OC[C@H](O)[C@H]1OC(=O)C(OP(=O)(O)O)=C1O.[Na] (stereo partly drawn) [Example A-2, L-Ascorbic Acid-2-Phosphoric Acid-6-(2′-n-Heptylundecanoate) sodium salt] | 95.5 | 187 | 37.6 | had an effect of accelerating the collagen synthesis | 5 | 11 | 26 | concentration of the ascorbic acid in the tissue could easily be enhanced effectively
